According to EP0297547A2, “Use of hydrolyzable tannins for treatement and prophylaxis of AIDS” (LEAD CHEMICAL COMPANY LTD., priority 1987, dated 1989):

How the values were obtained:
[1] = test system: Hela-S3 cells; assay: Cytotoxicity to Hela-S3 cells (colony formation); type: cell-based; conditions: sensitized 2 hours at 37°C, colonies counted in 72 hours
Method: Hela-S3 cells (1 x 10⁴ cells/ml) were applied to an Eagle's MEM medium or a 10 % fresh calf serum-containing Eagle's MEM medium, and Agrimoniin was added thereto to sensitize the cells at 37°C for 2 hours. The concentration of the Agrimoniin added was variously varied. After sensitization, the cells were washed with Hanks' solution and then incubated in a CO₂ incubator containing a 10 % fresh calf serum-containing Eagle's MEM medium at 37°C for 72 hours. […] In addition, IC₅₀ of Agrimoniin to Hela-S3 cells in the 10 % fresh calf serum-containing Eagle's MEM medium was improved to be 57.4 µg/ml. From these experiments, it is noted that ellagitannins have a relatively strong direct cytotoxic action but the cytotoxic action may be reduced by addition of proteins such as serum to the culture medium.

[2] = test system: ddy mice; assay: LD50 by probit method; type: in vivo
Source text: 50 % lethal dose (LD₅₀) of Coriariin A to ddy mice was obtained by probit method.

SMILES | 50 % cell-inhibiting concentration (IC₅₀) ([1]; 10 % fresh calf serum-containing Eagle's MEM medium) | 50 % cell-inhibiting concentration (IC₅₀) ([1]; Eagle's MEM medium) | LD₅₀ ([2]; Intraabdominal, Female) | LD₅₀ ([2]; Intraabdominal, Male) | LD₅₀ ([2]; Intravenous, Female) | LD₅₀ ([2]; Intravenous, Male) | LD₅₀ ([2]; Peroral, Female) | LD₅₀ ([2]; Peroral, Male)
O=C(O[C@H]1O[C@@H]2COC(=O)c3cc(O)c(O)c(O)c3-c3c(cc(O)c(O)c3O)C(=O)O[C@H]2[C@@H]2OC(=O)c3cc(O)c(O)c(O)c3-c3c(cc(O)c(O)c3O)C(=O)O[C@@H]12)c1cc(O)c(O)c(Oc2c(C(=O)O[C@H]3O[C@@H]4COC(=O)c5cc(O)c(O)c(O)c5-c5c(cc(O)c(O)c5O)C(=O)O[C@H]4[C@@H]4OC(=O)c5cc(O)c(O)c(O)c5-c5c(cc(O)c(O)c5O)C(=O)O[C@@H]34)cc(O)c(O)c2O)c1 [Agrimoniin] | 57.4 µg/mL | 7.3 µg/mL | – | – | – | – | – | –
O=C(O[C@@H]1O[C@@H]2COC(=O)c3cc(O)c(O)c(O)c3-c3c(cc(O)c(O)c3O)C(=O)O[C@H]2[C@H](OC(=O)c2cc(O)c(O)c(O)c2)[C@H]1OC(=O)c1cc(O)c(O)c(O)c1)c1cc(O)c(O)c(Oc2c(C(=O)O[C@H]3O[C@@H]4COC(=O)c5cc(O)c(O)c(O)c5-c5c(cc(O)c(O)c5O)C(=O)O[C@H]4[C@H](OC(=O)c4cc(O)c(O)c(O)c4)[C@H]3OC(=O)c3cc(O)c(O)c(O)c3)cc(O)c(O)c2O)c1 [Coriariin A] | – | – | 119.1 mg/kg | 120.2 mg/kg | 36.8 mg/kg | 37.5 mg/kg | 1000 or more mg/kg | 1000 or more mg/kg
